Experimental data taken from patent publication US10670605B2, “Cysteine reactive probes and uses thereof” (The Scripps Research Institute, priority 2015, dated 2020).
Structures can show the parent of a compound that is named as a salt.

Experiments:
Assay in all cases: isoTOP-ABPP of compound-treated primary human T cells
Assay type in all cases: cell-based
[1] = molecular target: T1, Cys residues in primary human T cells (Homo sapiens, UniProt A6NDG6); settings: PGP C297 (A6NDG6)
T1 sequence (A6NDG6 1-321): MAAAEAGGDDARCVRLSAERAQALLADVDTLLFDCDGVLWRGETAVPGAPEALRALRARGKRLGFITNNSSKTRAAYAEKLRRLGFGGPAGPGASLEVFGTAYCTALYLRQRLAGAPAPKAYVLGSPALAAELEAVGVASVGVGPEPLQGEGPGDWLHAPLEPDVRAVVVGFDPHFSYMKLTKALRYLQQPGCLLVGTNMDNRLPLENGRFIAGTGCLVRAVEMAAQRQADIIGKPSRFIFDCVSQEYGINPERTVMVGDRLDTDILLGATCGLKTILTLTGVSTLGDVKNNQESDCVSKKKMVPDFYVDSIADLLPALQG

[2] = molecular target: T2, Cys residues in primary human T cells (Homo sapiens, UniProt Q9NRG0); settings: CHRAC1 C55 (Q9NRG0)
T2 sequence (Q9NRG0 1-131): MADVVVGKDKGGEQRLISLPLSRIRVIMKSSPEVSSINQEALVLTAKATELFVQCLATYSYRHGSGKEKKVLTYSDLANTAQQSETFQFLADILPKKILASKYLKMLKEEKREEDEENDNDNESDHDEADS

[3] = molecular target: T3, Cys residues in primary human T cells (Homo sapiens, UniProt P00813); settings: ADA C75 (P00813)
T3 sequence (P00813 1-363): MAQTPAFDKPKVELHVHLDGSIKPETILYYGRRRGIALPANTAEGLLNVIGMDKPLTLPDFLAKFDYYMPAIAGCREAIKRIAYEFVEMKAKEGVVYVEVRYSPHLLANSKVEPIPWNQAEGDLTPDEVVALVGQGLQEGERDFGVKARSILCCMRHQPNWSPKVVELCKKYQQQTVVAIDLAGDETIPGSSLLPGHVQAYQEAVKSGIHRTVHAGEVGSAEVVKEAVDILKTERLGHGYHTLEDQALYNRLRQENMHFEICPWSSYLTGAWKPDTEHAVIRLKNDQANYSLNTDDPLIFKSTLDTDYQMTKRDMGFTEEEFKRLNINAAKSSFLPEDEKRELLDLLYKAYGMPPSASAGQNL

[4] = molecular target: Cys residues in primary human T cells (Homo sapiens, UniProt Q8TB24); settings: RIN3 C942 (Q8TB24)
Chain of Cys residues in primary human T cells (Homo sapiens, UniProt Q8TB24) (Q8TB24 whole entry): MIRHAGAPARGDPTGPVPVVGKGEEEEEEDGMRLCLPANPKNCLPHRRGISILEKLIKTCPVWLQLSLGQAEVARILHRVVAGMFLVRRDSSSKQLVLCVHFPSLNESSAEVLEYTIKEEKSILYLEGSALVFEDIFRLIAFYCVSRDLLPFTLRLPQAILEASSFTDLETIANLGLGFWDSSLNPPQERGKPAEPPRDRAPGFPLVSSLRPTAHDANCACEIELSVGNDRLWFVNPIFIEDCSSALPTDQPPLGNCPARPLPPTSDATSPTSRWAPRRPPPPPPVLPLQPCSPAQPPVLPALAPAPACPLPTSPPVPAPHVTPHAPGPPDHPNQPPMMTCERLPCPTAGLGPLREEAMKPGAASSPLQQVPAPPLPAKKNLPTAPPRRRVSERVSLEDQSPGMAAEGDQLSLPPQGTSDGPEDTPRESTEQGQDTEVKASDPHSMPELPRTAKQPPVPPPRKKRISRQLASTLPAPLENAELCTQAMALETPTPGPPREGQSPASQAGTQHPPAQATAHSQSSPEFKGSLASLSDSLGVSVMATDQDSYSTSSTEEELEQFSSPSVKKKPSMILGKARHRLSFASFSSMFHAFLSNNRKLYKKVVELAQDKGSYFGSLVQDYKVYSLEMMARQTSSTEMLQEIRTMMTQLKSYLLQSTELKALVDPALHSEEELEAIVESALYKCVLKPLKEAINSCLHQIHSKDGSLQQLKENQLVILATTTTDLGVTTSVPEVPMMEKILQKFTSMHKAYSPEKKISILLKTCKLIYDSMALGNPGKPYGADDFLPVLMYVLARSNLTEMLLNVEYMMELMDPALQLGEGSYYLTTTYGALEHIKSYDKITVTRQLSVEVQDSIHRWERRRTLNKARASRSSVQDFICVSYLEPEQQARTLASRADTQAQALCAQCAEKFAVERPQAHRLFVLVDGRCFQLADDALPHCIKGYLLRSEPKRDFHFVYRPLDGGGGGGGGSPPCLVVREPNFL

[5] = molecular target: T4, Cys residues in primary human T cells (Homo sapiens, UniProt Q02556); settings: IRF8 C306 (Q02556)
T4 sequence (Q02556 1-426): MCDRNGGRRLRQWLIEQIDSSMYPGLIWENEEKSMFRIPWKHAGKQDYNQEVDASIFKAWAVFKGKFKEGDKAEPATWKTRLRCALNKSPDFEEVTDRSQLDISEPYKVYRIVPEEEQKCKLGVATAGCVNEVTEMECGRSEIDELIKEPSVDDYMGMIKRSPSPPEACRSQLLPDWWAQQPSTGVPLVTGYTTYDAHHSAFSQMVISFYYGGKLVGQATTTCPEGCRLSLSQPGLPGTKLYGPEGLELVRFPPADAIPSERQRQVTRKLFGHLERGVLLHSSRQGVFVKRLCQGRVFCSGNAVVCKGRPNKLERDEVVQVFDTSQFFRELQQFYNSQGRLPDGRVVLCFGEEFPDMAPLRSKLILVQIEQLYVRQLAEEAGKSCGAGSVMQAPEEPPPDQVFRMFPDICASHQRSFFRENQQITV

[6] = molecular target: Cys residues in primary human T cells (Homo sapiens, UniProt O00170); settings: AIP C122 (O00170)
Chain of Cys residues in primary human T cells (Homo sapiens, UniProt O00170) (O00170 whole entry): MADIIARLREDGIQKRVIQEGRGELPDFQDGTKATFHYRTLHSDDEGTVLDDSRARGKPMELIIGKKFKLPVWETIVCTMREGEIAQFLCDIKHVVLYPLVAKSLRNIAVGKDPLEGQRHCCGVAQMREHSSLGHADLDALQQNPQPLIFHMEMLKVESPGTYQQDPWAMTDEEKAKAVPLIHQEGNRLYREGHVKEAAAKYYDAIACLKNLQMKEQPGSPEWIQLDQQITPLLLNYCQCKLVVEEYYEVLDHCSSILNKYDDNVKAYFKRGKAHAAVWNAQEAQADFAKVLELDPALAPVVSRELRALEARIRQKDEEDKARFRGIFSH

[7] = molecular target: Cys residues in primary human T cells (Homo sapiens, UniProt Q96CW5); settings: TUBGCP3 C194 (Q960W5)
Chain of Cys residues in primary human T cells (Homo sapiens, UniProt Q96CW5) (Q96CW5 whole entry): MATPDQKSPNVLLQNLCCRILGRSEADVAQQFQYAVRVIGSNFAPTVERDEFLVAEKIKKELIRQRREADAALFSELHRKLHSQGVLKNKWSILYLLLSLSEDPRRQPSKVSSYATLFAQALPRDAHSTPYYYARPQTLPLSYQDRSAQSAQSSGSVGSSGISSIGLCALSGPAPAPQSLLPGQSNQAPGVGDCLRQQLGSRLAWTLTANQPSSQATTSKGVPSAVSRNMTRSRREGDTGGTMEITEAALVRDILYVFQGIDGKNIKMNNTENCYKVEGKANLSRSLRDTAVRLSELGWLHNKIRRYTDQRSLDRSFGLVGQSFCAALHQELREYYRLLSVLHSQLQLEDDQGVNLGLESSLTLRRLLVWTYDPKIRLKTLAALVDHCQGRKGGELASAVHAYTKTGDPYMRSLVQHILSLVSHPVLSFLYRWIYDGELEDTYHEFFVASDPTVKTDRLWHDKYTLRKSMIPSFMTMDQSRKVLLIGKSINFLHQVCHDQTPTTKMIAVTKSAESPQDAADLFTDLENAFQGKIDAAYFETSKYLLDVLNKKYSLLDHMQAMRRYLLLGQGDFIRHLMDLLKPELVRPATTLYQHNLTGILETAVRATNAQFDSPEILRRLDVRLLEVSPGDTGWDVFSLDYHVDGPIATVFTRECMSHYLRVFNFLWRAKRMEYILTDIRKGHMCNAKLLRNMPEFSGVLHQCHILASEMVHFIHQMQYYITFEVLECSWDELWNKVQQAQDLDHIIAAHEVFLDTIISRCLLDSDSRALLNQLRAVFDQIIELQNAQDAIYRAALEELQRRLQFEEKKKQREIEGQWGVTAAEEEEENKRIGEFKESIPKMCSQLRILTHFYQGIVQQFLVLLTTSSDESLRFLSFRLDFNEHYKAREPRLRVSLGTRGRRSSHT

[8] = molecular target: T5, Cys residues in primary human T cells (Homo sapiens, UniProt Q96I15); settings: SCLY C22 (Q96115)
T5 sequence (Q96I15 1-445): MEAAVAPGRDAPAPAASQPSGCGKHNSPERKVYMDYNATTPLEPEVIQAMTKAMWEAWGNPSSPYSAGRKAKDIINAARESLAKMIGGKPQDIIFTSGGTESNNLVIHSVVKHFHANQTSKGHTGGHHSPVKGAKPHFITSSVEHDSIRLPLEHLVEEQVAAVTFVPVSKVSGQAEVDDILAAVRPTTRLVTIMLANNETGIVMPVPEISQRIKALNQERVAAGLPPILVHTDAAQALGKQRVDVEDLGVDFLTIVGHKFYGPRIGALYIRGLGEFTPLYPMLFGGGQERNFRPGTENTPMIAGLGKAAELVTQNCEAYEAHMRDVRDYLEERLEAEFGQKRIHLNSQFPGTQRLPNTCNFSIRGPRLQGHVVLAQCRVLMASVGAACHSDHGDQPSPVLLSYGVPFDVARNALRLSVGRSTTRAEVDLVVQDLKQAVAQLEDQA

## COC(=O)/C=C/C(=O)OC [DMF, dimethyl fumarate]
[1]; DMF 50 μM 1h
  R value (DMSO/DMF): 3.06
[1]; DMF 50 μM 2h
  R value (DMSO/DMF): 4.21
[1]; DMF 50 μM 4h
  R value (DMSO/DMF): 10.77
[2]; DMF 10 μM 4h
  R value (DMSO/DMF): 5.07
[2]; DMF 50 μM 1h
  R value (DMSO/DMF): 12.59
[2]; DMF 50 μM 2h
  R value (DMSO/DMF): 11.72
[3]; DMF 10 μM 4h
  R value (DMSO/DMF): 2.29
[3]; DMF 50 μM 1h
  R value (DMSO/DMF): 2.51
[3]; DMF 50 μM 2h
  R value (DMSO/DMF): 5.08
[3]; DMF 50 μM 4h
  R value (DMSO/DMF): 20
[4]; DMF 50 μM 2h
  R value (DMSO/DMF): 3
[4]; DMF 50 μM 4h
  R value (DMSO/DMF): 5.7
[5]; DMF 10 μM 4h
  R value (DMSO/DMF): 1.9
[5]; DMF 50 μM 1h
  R value (DMSO/DMF): 1.66
[5]; DMF 50 μM 4h
  R value (DMSO/DMF): 5.32
[6]; DMF 50 μM 2h
  R value (DMSO/DMF): 3.05
[6]; DMF 50 μM 4h
  R value (DMSO/DMF): 6.14
[7]; DMF 50 μM 2h
  R value (DMSO/DMF): 2.44
[7]; DMF 50 μM 4h
  R value (DMSO/DMF): 4.94
[8]; DMF 10 μM 4h
  R value (DMSO/DMF): 1.31
[8]; DMF 25 μM 4h
  R value (DMSO/DMF): 2.16
[8]; DMF 50 μM 1h
  R value (DMSO/DMF): 1.9
[8]; DMF 50 μM 2h
  R value (DMSO/DMF): 2.16
[8]; DMF 50 μM 4h
  R value (DMSO/DMF): 4.04
